# Key:
# MDCKII cells = test: MTT cytotoxicity assay in MDCKII wild type cells; type: cell-based; details: 72 h
# Description: Cytotoxicity of amino alcohols 5, 6 and their diastereoisomeric mixture 5/6 was analyzed using MTT cell proliferation assay and the LC50 values were determined in MDCKII wild type, hNPC1L1/MDCKII, and HepG2 cells (Table 2). MDCKII cells stably expressing human Niemann-Pick C1-like protein 1 (hNPC1L1/MDCKII) (Figure S1) are a pharmacologically validated system for investigating NPC1L1-mediated cholesterol uptake. The LC50 values were higher than 100 μM and considered nontoxic in all three cell lines. […] In addition, we tested the in vitro cytotoxicity of ezetimibe 1 and compounds 5, 6, and 5/6 (70:30) in combination with micelles and found all LC50 values to be above 100 μM (Figure S2).
# Madin–Darby Canine Kidney II (MDCKII) cells, MDCKII cells stably expressing human NPC1L1 (hNPC1L1/MDCKII), and human HepG2 liver cells were maintained in DMEM (Dulbecco's Modified Eagle Medium, Invitrogen, USA) containing 100 units/mL penicillin and 100 μg/mL streptomycin supplemented with 10% FCS (Sigma–Aldrich, Germany). The cells were grown at 37 °C in a humidified 5% CO2 incubator. Stable transfection of MDCKII cells with human NPC1L1 protein was performed using Lipofectamine LTX (Invitrogen, USA) according to the manufacturer's protocol. Selection with 1 mg/mL G418 (Sigma–Aldrich, Germany) was started 2 days after transfection. The concentration of G418 was decreased to 500 μg/mL after 14 days. Stably transfected cells were maintained in DMEM containing 100 units/mL penicillin and 100 μg/mL streptomycin supplemented with 10% FCS and 500 μg/mL G418.
# MDCKII, hNPC1L1/MDCKII, and HepG2 cells were seeded in 96-well microtiter plates on day 0 at densities of 3000 cells/well. On day 1, tested compounds (73 mM stock solution in DMSO) were added in five consecutive 10-fold dilutions (10^−8 to 10^−4 mol/L) and incubated for 72 h. Cytotoxicity of the compounds was assessed on day 4 by the MTT cell proliferation assay (Sigma–Aldrich, Germany) which detects mitochondrial dehydrogenase activity in viable cells. The results are expressed as LC50 and the values for each compound were calculated from dose–response curves using linear regression analysis. Each concentration was tested in quadruplicate in three independent experiments. Toxicity of the compounds in combination with micelles was also tested using the same method. MDCKII and hNPC1L1/MDCKII were seeded in 96-well microtiter plates (150 μL medium/well) at a density of 2 × 10^5 cells/mL medium 24 h before the experiment. Micelles were prepared according to the modified method reported by Field et al.. In brief, 0.25 mM oleic acid, 50 μM cholesterol, 10 μM compactin, 50 μM mevalonate, 5 mM Na-taurocholate (Sigma–Aldrich, Germany) in DMEM/10% FCS were mixed and sonicated. Following the micellar formation, compounds 1, 5, 6, and 5/6 (70:30) (73 mM stock solution in DMSO) were added to the medium and vortexed to obtain the final concentrations of the compounds (25, 50, 100, 150, 200 μM) and applied to the cells for 1 h. Thereafter, cytotoxicity was determined using the MTT assay.
# MDCKII wildtype cells = test: In vitro [3H]cholesterol uptake assay in MDCKII wildtype cells; type: cell-based, Canine; details: Figure S3
# Description: Medium A contained DMEM plus 100 units/mL penicillin and 100 μg/mL streptomycin supplemented with 5% lipoprotein-deficient serum (density > 1.21 g/mL, prepared from FCS by ultracentrifugation). Cholesterol Replenishing Medium (Medium B) was prepared according to the modified method reported by Field et al.. In brief, 0.25 mM oleic acid, 50 μM free cholesterol, 10 μM compactin, 50 μM mevalonate, 5 mM Na-taurocholate (Sigma–Aldrich, Germany), and [^3H]cholesterol (0.18 μCi/mL medium, [1,2–3H(N)] cholesterol, 1 mCi/mL (ARC Inc., USA)) in Medium A were mixed and sonicated. Following the micellar formation, compounds 1, 5, 6, 5/6 (70:30), and 6/5 (85:15) (73 mM stock solution in DMSO) were added to Medium B and vortexed to obtain the final concentrations (10, 30, 60, 90, 120, 150, 200 μM).
# MDCKII wildtype and hNPC1L1/MDCKII cells were seeded in 24-well plates at a density of 5 × 10^5 cells/mL medium (500 μL medium/well) in Medium A 24 h before the treatment. […] Cells were lysed and radioactivity in the lysate (100 μL) was determined by liquid scintillation counting. Protein concentrations of the lysates were determined with the DC Protein Assay (Bio-Rad, USA). The results were calculated as cpm/mg protein and expressed as percentage of inhibition compared to untreated cells. […]
# [1] = pKa by spectrophotometric titration; type: physicochemical; details: λ 247 nm, pH 6–12, 20 °C
# Description: We determined pKa values of the amino alcohols 5 (Fig. 9) and 6 (data not shown) using spectrophotometric titration.
# Stock solution of amino alcohols 5 and 6 (160 μL, 2 mg/mL methanol) was added to NaCl solution in water (20 mL, 0.1 mol/L), thus resulting in a solution of each amino alcohol 5 and 6 in concentration of 4 × 10^−5 mol/L. Furthermore, solutions of NaOH (0.1 mol/L, 1 mol/L and 2 mol/L) were prepared in NaCl solution in water (100 mL, 0.1 mol/L). NaOH solutions (1.5–20 μL) were added to each solution of amino alcohol 5 or 6, pH values measured and UV spectra (λ 200–350 nm) recorded at pH 6–12. The titrations were performed at rt (20 °C) and inflection points of sigmoid curves at λ 247 nm were calculated as pKa values for both amino alcohols.
SMILES,"LC50, MDCKII (MDCKII cells)",effect on cholesterol uptake (MDCKII wildtype cells),pKa [1]
"O=C1[C@H](CC[C@H](O)c2ccc(F)cc2)[C@@H](c2ccc(O)cc2)N1c1ccc(F)cc1 [Compound 1, ezetimibe, reference compound]",no toxicity,no effect,
O=C1[C@H](NC[C@H](O)c2ccc(F)cc2)[C@@H](c2ccc(O)cc2)N1c1ccc(F)cc1 [Compound 5],,,9.35
"O=C1[C@H](NC[C@@H](O)c2ccc(F)cc2)[C@@H](c2ccc(O)cc2)N1c1ccc(F)cc1 [Compound 6, (3R,4R)-3-[(2S)-2-(4-fluorophenyl)-2-hydroxyethylamino]-1-(4-fluorophenyl)-4-(4-hydroxyphenyl)azetidin-2-one]",,,9.35

# Source: PMC4237514, “Novel amino-β-lactam derivatives as potent cholesterol absorption inhibitors” (European Journal of Medicinal Chemistry, 2014)
